We go through four compounds from patent publication US20250235566A1, “[…]-[…] LABELING PRECURSORS AND RA[…] THEREFROM” (Medianezia GmbH, priority 2021, published 2025).

Where only a bound is given, the exact number is not on record here.

The IC50 is the midpoint of a concentration-inhibition curve. Read a low IC50 as higher potency.

Assay type in all cases: biochemical
Experiment [1] concerns the target T1, DPP8 (dipeptidylpeptidase VIII) (Homo sapiens, UniProt Q6V1X1).
T1 construct: made in house
As to the kind of experiment: DPP8 IC50 measurement with Ala-Pro-pNA substrate. As to conditions: Ala-Pro-pNA 300 μM, pH=7.4. As for the experimental part: (§1) The rhFAP (fibroblast activation protein), PREP (prolyl endopeptidase), DPP4 (dipeptidylpeptidase IV), DPP8 (dipeptidylpeptidase VIII) and DPP 9 (dipeptidylpeptidase IX) enzymes were expressed before use in the in vitro assays and then purified.
(§2) IC50 measurements were conducted with the Infinite 200 instrument (Tecan Group Ltd.) and evaluated with the Magellan software.
(§3) The data were evaluated by GraFit 7 using a non-linear fit according to the following equation: […]
(§4) where y is the remaining enzyme activity compared to the non-inhibited sample, xis the final inhibitor concentration used in the assay, s is the slope factor and IC50 is the […] inhibitory concentration.
At least 8 concentrations of the FAP inhibitors examined were examined, with always the same DMSO concentration. The inhibitors were pre-incubated at 37° C. for 15 min before the Ala-Pro-pNA substrate was added. The release kinetics of pNA were measured at a wavelength of λex=405 nm for at least 10 min.

Experiment [2] has as its target T2, DPP 9 (dipeptidylpeptidase IX) (Homo sapiens, UniProt Q86TI2).
T2 construct: made in house
As to the kind of experiment: DPP9 IC50 measurement with Ala-Pro-pNA substrate. To be noted: Ala-Pro-pNA 150 μM, pH=7.4. As for the experimental part: as §1, §2, §3, §4
(§5) At least 8 concentrations of the FAP inhibitors examined were examined, with always the same DMSO concentration. The inhibitors were pre-incubated at 37° C. for 15 min before the Ala-Pro-pNA substrate was added.

The target of experiment [3] is T3, rhFAP (fibroblast activation protein) (Homo sapiens, UniProt Q12884).
T3 construct: made in house
T3 sequence (Q12884 1-760): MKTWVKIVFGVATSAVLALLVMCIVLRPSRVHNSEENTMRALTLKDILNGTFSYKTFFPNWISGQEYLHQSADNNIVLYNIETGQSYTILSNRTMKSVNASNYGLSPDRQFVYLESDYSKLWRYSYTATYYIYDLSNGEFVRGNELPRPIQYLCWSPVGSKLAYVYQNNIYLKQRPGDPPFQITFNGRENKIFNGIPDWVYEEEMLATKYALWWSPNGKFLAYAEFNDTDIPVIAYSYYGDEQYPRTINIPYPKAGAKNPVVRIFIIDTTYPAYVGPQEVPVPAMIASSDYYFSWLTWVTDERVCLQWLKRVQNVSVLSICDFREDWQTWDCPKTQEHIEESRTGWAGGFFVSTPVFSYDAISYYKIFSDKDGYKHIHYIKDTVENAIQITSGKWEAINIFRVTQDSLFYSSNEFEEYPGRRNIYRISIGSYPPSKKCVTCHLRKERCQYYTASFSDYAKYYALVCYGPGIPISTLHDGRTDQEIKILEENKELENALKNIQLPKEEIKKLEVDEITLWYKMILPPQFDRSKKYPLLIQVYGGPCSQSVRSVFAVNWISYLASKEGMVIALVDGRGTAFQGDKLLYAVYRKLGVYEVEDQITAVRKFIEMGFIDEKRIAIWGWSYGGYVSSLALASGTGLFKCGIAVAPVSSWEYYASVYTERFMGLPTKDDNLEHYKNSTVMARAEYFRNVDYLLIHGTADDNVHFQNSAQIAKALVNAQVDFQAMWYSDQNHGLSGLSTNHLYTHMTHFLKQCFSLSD
As to the kind of experiment: FAP IC50 measurement with Z-Gly-Pro-AMC substrate. To be noted: Z-Gly-Pro-AMC 50 μM, pH=8, 15 min pre-incubation at 37° C. The procedure: as §1, §2, §3, §4
8 concentrations of the FAP inhibitors examined were examined, with always the same DMSO concentration. The inhibitors were pre-incubated at 37° C. for 15 min before the Z-Gly-Pro-AMC substrate was added. The release kinetics of AMC were measured at an excitation wavelength λex=380 nm and emission wavelength Δem=465 nm for at least 10 min.

The target of experiment [4] is T4, DPP4 (dipeptidylpeptidase IV) (Homo sapiens, UniProt P27487).
T4 construct: made in house
T4 sequence (P27487 whole entry, species assumed): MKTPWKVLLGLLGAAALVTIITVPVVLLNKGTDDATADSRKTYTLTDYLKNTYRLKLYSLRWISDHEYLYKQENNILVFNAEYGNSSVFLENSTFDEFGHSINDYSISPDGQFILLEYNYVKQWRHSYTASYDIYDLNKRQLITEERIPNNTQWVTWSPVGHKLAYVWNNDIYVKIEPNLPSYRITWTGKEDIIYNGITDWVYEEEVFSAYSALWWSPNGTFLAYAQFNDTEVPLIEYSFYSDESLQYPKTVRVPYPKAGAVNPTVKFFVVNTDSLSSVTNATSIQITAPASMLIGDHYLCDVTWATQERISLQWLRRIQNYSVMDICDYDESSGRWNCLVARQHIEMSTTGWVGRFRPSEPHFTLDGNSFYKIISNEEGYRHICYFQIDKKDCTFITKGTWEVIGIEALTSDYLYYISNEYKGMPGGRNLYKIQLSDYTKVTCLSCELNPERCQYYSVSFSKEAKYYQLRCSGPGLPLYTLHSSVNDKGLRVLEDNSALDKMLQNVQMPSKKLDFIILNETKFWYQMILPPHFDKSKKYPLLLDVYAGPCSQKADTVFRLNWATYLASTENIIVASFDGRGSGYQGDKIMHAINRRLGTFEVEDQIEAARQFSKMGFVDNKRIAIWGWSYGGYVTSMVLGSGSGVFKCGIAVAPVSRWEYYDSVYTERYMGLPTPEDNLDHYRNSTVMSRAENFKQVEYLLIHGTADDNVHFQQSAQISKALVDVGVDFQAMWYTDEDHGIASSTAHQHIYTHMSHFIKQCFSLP
As to the kind of experiment: DPP4 IC50 measurement with Ala-Pro-pNA substrate. As to conditions: Ala-Pro-pNA 25 μM, pH=7.4. The procedure:
as §1, §2, §3, §4, §5

Experiment [5] deals with T5, PREP (prolyl endopeptidase) (Homo sapiens, UniProt P48147).
T5 construct: made in house
T5 sequence (P48147 1-710): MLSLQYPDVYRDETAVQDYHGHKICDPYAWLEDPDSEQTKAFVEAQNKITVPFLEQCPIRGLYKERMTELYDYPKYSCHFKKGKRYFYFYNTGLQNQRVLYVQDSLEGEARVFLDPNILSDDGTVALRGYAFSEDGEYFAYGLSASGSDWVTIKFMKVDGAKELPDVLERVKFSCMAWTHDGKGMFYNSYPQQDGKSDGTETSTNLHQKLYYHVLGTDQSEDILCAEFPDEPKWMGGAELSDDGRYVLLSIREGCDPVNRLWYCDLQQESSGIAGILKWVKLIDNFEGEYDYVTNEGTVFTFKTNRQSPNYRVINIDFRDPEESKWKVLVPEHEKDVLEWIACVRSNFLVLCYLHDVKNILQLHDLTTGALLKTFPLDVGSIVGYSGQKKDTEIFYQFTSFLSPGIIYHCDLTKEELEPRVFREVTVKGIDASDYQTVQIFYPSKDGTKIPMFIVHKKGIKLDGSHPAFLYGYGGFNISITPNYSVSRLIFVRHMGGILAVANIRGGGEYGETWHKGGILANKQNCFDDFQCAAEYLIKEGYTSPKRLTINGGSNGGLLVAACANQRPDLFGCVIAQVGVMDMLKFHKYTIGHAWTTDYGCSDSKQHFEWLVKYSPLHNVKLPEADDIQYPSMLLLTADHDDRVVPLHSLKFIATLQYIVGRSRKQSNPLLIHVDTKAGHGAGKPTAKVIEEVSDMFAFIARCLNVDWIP
As to the kind of experiment: PREP IC50 measurement with N-succinyl-Gly-Pro-AMC substrate. As to conditions: N-succinyl-Gly-Pro-AMC 250 μM, pH=7.4. As for the experimental part: as §1, §2, §3, §4
8 concentrations of the FAP inhibitors examined were examined, with always the same DMSO concentration. The inhibitors were pre-incubated at 37° C. for 15 min before the N-succinyl-Gly-Pro-AMC substrate was added. The release kinetics of AMC were measured at an excitation wavelength λex=380 nm and emission wavelength λem=465 nm for at least 10 min.

T1 sequence (Q6V1X1 whole entry, species assumed): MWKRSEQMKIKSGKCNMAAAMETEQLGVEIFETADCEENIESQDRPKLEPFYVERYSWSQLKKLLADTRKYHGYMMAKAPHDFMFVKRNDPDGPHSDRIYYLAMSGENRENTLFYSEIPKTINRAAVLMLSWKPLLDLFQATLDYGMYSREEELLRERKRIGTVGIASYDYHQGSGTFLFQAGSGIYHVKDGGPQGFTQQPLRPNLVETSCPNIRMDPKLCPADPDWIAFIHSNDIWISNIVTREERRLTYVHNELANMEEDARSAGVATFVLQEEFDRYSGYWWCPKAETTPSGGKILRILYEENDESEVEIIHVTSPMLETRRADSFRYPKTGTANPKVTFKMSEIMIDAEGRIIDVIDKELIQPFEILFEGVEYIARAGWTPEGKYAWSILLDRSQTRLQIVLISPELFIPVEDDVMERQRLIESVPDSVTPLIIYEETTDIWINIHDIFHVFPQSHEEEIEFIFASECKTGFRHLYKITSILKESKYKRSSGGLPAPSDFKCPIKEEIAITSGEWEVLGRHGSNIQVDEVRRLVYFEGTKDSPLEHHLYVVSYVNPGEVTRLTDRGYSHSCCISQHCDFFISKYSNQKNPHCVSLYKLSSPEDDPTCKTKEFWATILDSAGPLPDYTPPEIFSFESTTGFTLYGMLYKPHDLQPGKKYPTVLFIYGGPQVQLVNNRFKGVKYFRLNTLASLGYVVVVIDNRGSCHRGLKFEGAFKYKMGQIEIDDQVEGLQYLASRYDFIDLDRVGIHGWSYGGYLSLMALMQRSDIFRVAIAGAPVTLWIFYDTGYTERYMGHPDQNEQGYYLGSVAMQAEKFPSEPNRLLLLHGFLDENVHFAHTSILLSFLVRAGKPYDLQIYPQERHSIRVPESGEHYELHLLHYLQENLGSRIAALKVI
T2 sequence (Q86TI2 whole entry, species assumed): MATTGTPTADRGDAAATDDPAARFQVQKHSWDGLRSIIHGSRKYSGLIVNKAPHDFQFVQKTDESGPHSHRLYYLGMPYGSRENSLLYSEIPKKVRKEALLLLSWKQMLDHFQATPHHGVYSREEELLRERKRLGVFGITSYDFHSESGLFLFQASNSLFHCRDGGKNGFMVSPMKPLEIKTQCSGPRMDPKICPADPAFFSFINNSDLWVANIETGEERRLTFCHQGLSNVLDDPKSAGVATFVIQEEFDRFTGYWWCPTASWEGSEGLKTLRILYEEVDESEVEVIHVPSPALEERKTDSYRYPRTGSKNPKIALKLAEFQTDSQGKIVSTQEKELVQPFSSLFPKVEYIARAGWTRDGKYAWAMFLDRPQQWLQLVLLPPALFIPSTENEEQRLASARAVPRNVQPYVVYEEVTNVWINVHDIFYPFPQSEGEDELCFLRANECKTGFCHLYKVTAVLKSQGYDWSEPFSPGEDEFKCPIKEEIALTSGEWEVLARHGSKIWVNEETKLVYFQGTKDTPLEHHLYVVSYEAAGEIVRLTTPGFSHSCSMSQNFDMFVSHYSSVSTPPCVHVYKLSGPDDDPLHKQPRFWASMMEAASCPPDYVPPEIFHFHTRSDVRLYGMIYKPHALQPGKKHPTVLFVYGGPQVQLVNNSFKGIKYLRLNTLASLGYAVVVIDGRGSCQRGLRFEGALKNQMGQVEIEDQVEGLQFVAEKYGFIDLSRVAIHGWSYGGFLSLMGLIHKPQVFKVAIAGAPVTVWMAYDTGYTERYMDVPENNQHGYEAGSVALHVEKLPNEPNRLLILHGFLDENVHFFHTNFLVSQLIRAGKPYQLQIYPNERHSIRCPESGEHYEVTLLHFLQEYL

Turning to `N#C[C@@H]1CC(F)(F)CN1C(=O)CNC(=O)c1ccnc2ccc(OCCCCNC(=O)CC[C@H](NC(=O)CN3CCN(CC(=O)O)CCN(CC(=O)O)CCN(CC(=O)O)CC3)C(=O)NCCCCOc3ccc4nccc(C(=O)NCC(=O)N5CC(F)(F)C[C@H]5C#N)c4c3)cc12` [DOTA.Glu.(FAPi)2, 2,2′,2″-(10-(2-(((S)-1,5-bis((4-((4-((2-((S)-2-cyano-4,4-difluoropyrrolidin-1-yl)-2-oxoethyl)carbamoyl)quinolin-6-yl)oxy)butyl)amino)-1,5-dioxopentan-2-yl)amino)-2-oxoethyl)-1,4,7,10-tetraazacyclododecan-1,4,7-triyl)triacetic acid], the IC50 worked out at 1030 ± 180 nM in experiment [1]; 950 ± 110 nM in experiment [2]; 0.6 ± 0.04 nM in experiment [3]; 540 ± 60 nM in experiment [4]; 1000 ± 140 nM in experiment [5].
For `N#C[C@@H]1CC(F)(F)CN1C(=O)CNC(=O)c1ccnc2ccc(OCCCCNC(=O)CC[C@H](NC(=O)CCC(C(=O)O)N3CCN(CC(=O)O)CCN(CC(=O)O)CCN(CC(=O)O)CC3)C(=O)NCCCCOc3ccc4nccc(C(=O)NCC(=O)N5CC(F)(F)C[C@H]5C#N)c4c3)cc12` (stereo partly drawn) [DOTAGA.Glu.(FAPi)2, 2,2′,2″-(10-(4-(((S)-1,5-bis((4-((4-((2-((S)-2-cyano-4,4-difluoropyrrolidin-1-yl)-2-oxoethyl)carbamoyl)quinolin-6-yl)oxy)butyl)amino)-1,5-dioxopentan-2-yl)amino)-1-carboxy-4-oxobutyl)-1,4,7,10-tetraazacyclododecan-1,4,7-triyl)triacetic acid], in that order: 29 ± 4 nM, 83 ± 1.5 nM, 0.26 ± 0.04 nM, 1190 ± 80 nM and 590 ± 100 nM.
`N#C[C@@H]1CC(F)(F)CN1C(=O)CNC(=O)c1ccnc2ccccc12` [UAMC1110, (S)—N-(2-(2-cyano-4,4′-difluoropyrrolidin-1-yl)-2-oxoethyl)quinoline-4-carboxamide, reference compound]: the IC50 in experiment [1] was more than 10000 nM.
As to `CN(CC(=O)O)C1(CCCCC(=O)N[C@@H](CCC(=O)NCCCCOc2ccc3nccc(C(=O)NCC(=O)N4CC(F)(F)C[C@H]4C#N)c3c2)C(=O)NCCCCOc2ccc3nccc(C(=O)NCC(=O)N4CC(F)(F)C[C@H]4C#N)c3c2)CN(CC(=O)O)CCN(CC(=O)O)C1` [DATA^5m.Glu.(FAPi)2, 2,2′-(6-(5-(((S)-1,5-bis((4-((4-((2-((S)-2-cyano-4,4-difluoropyrrolidin-1-yl)-2-oxoethyl)carbamoyl)quinolin-6-yl)oxy)butyl)amino)-1,5-dioxopentan-2-yl)amino)-5-oxopentyl)-6-((carboxymethyl)(methyl)amino)-1,4-diazepane-1,4-diyl)diacetic acid], the IC50 stood at 2220 ± 400 nM in experiment [1]; 770 ± 110 nM in experiment [2]; 0.71 ± 0.05 nM in experiment [3]; 1570 ± 60 nM in experiment [4]; 310 ± 60 nM in experiment [5].
